# Assay results taken from patent publication US9427426B2 (priority 2008, dated 2016).
# Several values for one entry are separate records, joined by “and”; a condition that tells them apart may be missing. Equal values may be shown once.
# Experiments:
# [1] = system: rat intoxicated with lead (lead acetate); test: Example 3: erdosteine i.v. vs BAL+EDTA (TT) and association in rats intoxicated with lead; settings: erdosteine 350 mg/kg i.v.
# Excerpt: The animals have been randomly divided in 6 lots.
# 2. […] Dosage administered is similar to the maximum possible dosage in man.
# 4. Erdosteine has been administered first, immediately after intoxication, followed rapidly by BAL and then EDTA by more operators in sequence, in order to simulate the situation in man when it is possible to administer i.v. in perfusion and at the same time i.m.
# Mortality has been recorded. […] After 7 days urine have been taken through trans-vesica punction.
# Analysis of mortality have been made using Chi square test.
# Results with p<0.05 have been considered statistically significant.
# Biochemical tests have been made with Refloton 2000, hematological tests with Hemastar 4, urine summary with Urilux, Pb in urine with GC-MS Varian
# [2] = system: rats intoxicated with lead (lead acetate); test: Example 2: erdosteine i.v. vs NAC i.v. in rats intoxicated with lead; assay type: in vivo, Wistar rats; settings: for Mortalitaty total / Mortality in percent: Pb intoxicated (lead acetate 4665 mg/kg per os), 35 animals/lot; for Anatomical pathology: lesions / Pb in urine, Pb mean values / Creatinine mean values / Haematocrit mean values / Haemoglobin mean values / Leucocytes mean values / Urea mean values / Uric acid mean value / erythrocytes mean values: Pb intoxicated; for Creatinine mean values / Haematocrit mean values / Haemoglobin mean values / Leucocytes mean values / Urea mean values / Uric acid mean value / erythrocytes mean values: survivors after 7 days
# Method: (§1) The animals have been randomly divided in 11 lots.
# (§2) 3. […] NAC has been dissolved in bidistilled water.
# (§3) 4. […] Erdosteine has been solubilized in bidistilled water and sodium hydrogen carbonate equimolar, the resulting solution being administered in volume of 10 ml/kg. Preliminarily we tested the different molar ratios erdosteine/sodium hydrogen carbonate in a range between 0.5:1 and 1.5:1 and the volume to be solubilized. […] Animals Monitoring:
# (§4) Mortality has been recorded. […] Few animals have been collected urine eliminated spontaneously for Pb—Hg analysis. Animals have been sacrificed under general anesthesia with ether. 6 animals of each group (3 males and 3 females) have been randomly selected for macroscopic and microscopic anatomic-pathological examination.
# [3] = system: rats intoxicated with mercury (mercury chloride); test: Example 2: erdosteine i.v. vs NAC i.v. in rats intoxicated with mercury; assay type: in vivo, Wistar rats; settings: for Mortalitaty total / Mortality in percent: Hg intoxicated (mercury chloride 42 mg/kg per os), 35 animals/lot; for Anatomical pathology: lesions / Hg in urine mean values / Creatinine mean values / Haematocrit mean values / Haemoglobin mean values / Leucocytes mean values / Urea mean values / Uric acid mean value / erythrocytes mean values: Hg intoxicated; for Creatinine mean values / Haematocrit mean values / Haemoglobin mean values / Leucocytes mean values / Urea mean values / Uric acid mean value / erythrocytes mean values: survivors after 7 days
# Method: as §1, §2, §3, §4
# [4] = water (NAC: at 20° C.); cited from earlier work
# rat = settings: cited from earlier work
# [5] = system: rats intoxicated with lead (lead acetate); test: Example 1: erdosteine per os vs NAC per os in rats intoxicated with lead; assay type: in vivo, Wistar rats; settings: erdosteine 875 mg/kg or NAC 500 mg/kg per os once a day for 7 days
# Method: 3. […] NAC has been mixed with bidistilled water, the resulting solution being administered in volume of 10 ml/kg.
# 4. […] Erdosteine has been mixed with bidistilled water and sodium hydrogen carbonate equimolar, the resulting solution being administered in volume of 10 ml/kg.
# as §4
# [6] = Pb intoxicated (lead acetate 4665 mg/kg per os), BAL 25.2 mg/kg + EDTA 30 mg/kg i.m. (TT) or both, once a day for 7 days, 30 animals/lot
# [7] = survivors after 7 days, Pb intoxicated, TT (BAL+EDTA i.m.) or both
# [8] = survivors after 7 days, Pb intoxicated, TT (BAL+EDTA i.m.) or both, listed as Erdosteine
# [9] = urine at the end of period (7 days), Pb intoxicated, TT or both
# [10] = ERDO1 = erdosteine 350 mg/kg i.v. or NAC 114 mg/kg i.v. once a day for 7 days
# [11] = ERDO2 = erdosteine 175 mg/kg i.v. once a day for 7 days
# [12] = ERDO1 = erdosteine 350 mg/kg i.v. or NAC 114 mg/kg i.v. once a day
# [13] = ERDO2 = erdosteine 175 mg/kg i.v. once a day
# [14] = Pb intoxicated (lead acetate 4665 mg/kg per os), 30 animals/lot
# [15] = survivors after 7 days, Pb intoxicated
smiles,measurement,setting,value
"O=C(O)CSCC(=O)NC1CCSC1=O (centres unmarked) [erdosteine, Erdosteine]",Mortality %,[1]; [6],37%
same,Total mortality,[1]; [6],11/30 and 11/30 ^1
same,"Renal aggression (urine summary), in words","[1]; Pb intoxicated, TT or both",improvement compared with TT
same,"Pb in urine of survivors at the end of period, mean values","[1]; Pb intoxicated, TT or both, once a day for 7 days",164.6 mg/L
same,ALT,[1]; [7],159^2
same,AST,[1]; [7],57.2^3
same,Hb,[1]; [7],16.98
same,Hct,[1]; [7],42.9
same,MCH,[1]; [7],23.46
same,PLT,[1]; [7],574
same,RBC,[1]; [7],7.156
same,Urea,[1]; [7],69.4^3
same,Uric acid,[1]; [7],2.632
same,WBC,[1]; [7],6.16
same,ALT,[1]; [8],"159^2,3"
same,AST,[1]; [8],57.2
same,Hb,[1]; [8],16.98^3
same,PLT,[1]; [8],574^3
same,RBC,[1]; [8],"7.156^1,3"
same,Urea,[1]; [8],68.4
same,WBC,[1]; [8],6.16^3
same,Urine summary: Bil.,[1]; [9],3 mg/dL
same,Urine summary: Chet,[1]; [9],10 mg/dL
same,Urine summary: Density,[1]; [9],1020
same,Urine summary: Erythrocyte,[1]; [9],100 µL⁻¹
same,Urine summary: Glucose,[1]; [9],50 mg/dL
same,Urine summary: Leuc,[1]; [9],28 µL⁻¹
same,Urine summary: Prot.,[1]; [9],90 mg/dL
same,Urine summary: UBG,[1]; [9],1 mg/dL
same,Urine summary: pH,[1]; [9],6.5
same,Mortalitaty total,[2]; [10],"5 ^1, 2"
same,Mortality in percent,[2]; [10],14.3%
same,Mortalitaty total,[2]; [11],"10 ^1, 2"
same,Mortality in percent,[2]; [11],28.6%
same,Anatomical pathology: lesions,[2]; [10],less important damages
same,"Pb in urine, Pb mean values",[2]; [10],15.9 mg/L
same,Anatomical pathology: lesions,[2]; [11],did not improve lesions
same,"Pb in urine, Pb mean values",[2]; [11],13 mg/L
same,Creatinine mean values,[2]; [12],"0.49 ^1, 2 mK/dl"
same,Haematocrit mean values,[2]; [12],37.21 ^3
same,Haemoglobin mean values,[2]; [12],15.71 ^3 g/dl
same,Leucocytes mean values,[2]; [12],11.36 ^3
same,Urea mean values,[2]; [12],"48.95 ^1, 2, 3 mg/dl"
same,Uric acid mean value,[2]; [12],2.28 ^4 mg/dl
same,erythrocytes mean values,[2]; [12],7.01 ^3 *10^6/mm^3
same,Creatinine mean values,[2]; [13],"0.46 ^1, 2 mK/dl"
same,Haematocrit mean values,[2]; [13],37.7 ^3
same,Haemoglobin mean values,[2]; [13],15.95 ^3 g/dl
same,Leucocytes mean values,[2]; [13],14.35 ^3
same,Urea mean values,[2]; [13],"54.4 ^1, 2 mg/dl"
same,Uric acid mean value,[2]; [13],"1.76 ^1, 2 mg/dl"
same,erythrocytes mean values,[2]; [13],7.07 ^3 *10^6/mm^3
same,Mortalitaty total,[3]; [10],"8 ^1, 2"
same,Mortality in percent,[3]; [10],22.6%
same,Mortality in percent,"[3]; ERDO1 = erdosteine 350 mg/kg i.v. or NAC 114 mg/kg i.v. once a day for 7 days, listed as ERDOI",22.6%
same,Mortalitaty total,[3]; [11],"12 ^1, 2"
same,Mortality in percent,[3]; [11],34.3%
same,Anatomical pathology: lesions,[3]; [10],least severe damages
same,Hg in urine mean values,[3]; [10],18.7 mg/L
same,Anatomical pathology: lesions,[3]; [11],less important lesions
same,Hg in urine mean values,[3]; [11],14.4 mg/L
same,Creatinine mean values,[3]; [12],0.60 ^2 mK/dl
same,Haematocrit mean values,[3]; [12],38.43 ^3
same,Haemoglobin mean values,[3]; [12],15.05 ^3 g/dl
same,Leucocytes mean values,[3]; [12],17.36 ^3
same,Urea mean values,[3]; [12],"50.36 ^1, 2 mg/dl"
same,Uric acid mean value,[3]; [12],2.25 ^4 mg/dl
same,erythrocytes mean values,[3]; [12],6.98 ^3 *10^6/mm^3
same,Creatinine mean values,[3]; [13],"0.51 ^1, 2 mK/dl"
same,Haematocrit mean values,[3]; [13],36.83 ^3
same,Haemoglobin mean values,[3]; [13],13.86 ^J g/dl
same,Leucocytes mean values,[3]; [13],8.61 ^3
same,Urea mean values,[3]; [13],"53.15 ^1, 2 mg/dl"
same,Uric acid mean value,[3]; [13],2.23 ^4 mg/dl
same,erythrocytes mean values,[3]; [13],6.55 ^3 *10^6/mm^3
same,"solubility in water, in words",[4],moderately soluble
same,LD50 per os,"rat; per os, rat where given",8750 mg/kg
same,LD50 i.v.,"rat; rat, i.v.",> 3500 mg/kg
same,Mortality in percent,[5]; [14],16.6%
same,Mortality total,[5]; [14],5
same,Anatomical pathology: lesions (macroscopic and microscopic examination),[5]; Pb intoxicated,less important damages
same,"Pb in urine, Pb mean values","[5]; Pb intoxicated, GS MS Varian 4100",10.9 mg/L
same,Creatinine mean values,[5]; [15],"0.48 ^1, 2 mK/dl"
same,Haematocrit mean values,[5]; [15],39.41^3
same,Haemoglobin mean values,[5]; [15],13.75^3 g/dl
same,Leucocytes mean values,[5]; [15],7.31^3
same,Urea mean values,[5]; [15],"50.93 ^1, 2 mg/dl"
same,Uric acid mean value,[5]; [15],1.90 ^3 mg/dl
same,erythrocytes mean values,[5]; [15],6.82^3 *10^6/mm^3
